Reference: ChEMBL document CHEMBL5154777, “Alternative approaches utilizing click chemistry to develop next-generation analogs of solithromycin” (2022)
Values after ≈ are worked out from the molar mass of the structure shown.

Tests used:
Type in all cases: functional
Staphylococcus aureus [1] = assay: Antibacterial activity against methicillin-resistant Staphylococcus aureus ATCC 43300
Enterococcus faecium = assay: Antibacterial activity against Enterococcus faecium NCTC 7171
Pseudomonas aeruginosa = assay: Antibacterial activity against Pseudomonas aeruginosa HER 1018
Klebsiella pneumoniae = assay: Antibacterial activity against Klebsiella pneumoniae BAA 2146
Acinetobacter baumannii = assay: Antibacterial activity against Acinetobacter baumannii 2208 ATCC 19606
Escherichia coli [2] = assay: Antibacterial activity against Escherichia coli MG1655
Enterobacter cloacae = assay: Antibacterial activity against Enterobacter cloacae ATCC 13047
Staphylococcus aureus [3] = assay: Antibacterial activity against Staphylococcus aureus UCN14
Staphylococcus aureus [4] = assay: Antibacterial activity against Staphylococcus aureus UCN17
Staphylococcus aureus [5] = assay: Antibacterial activity against Staphylococcus aureus UCN18
Escherichia coli [6] = assay: Antibacterial activity against Escherichia coli DK3535
Escherichia coli [7] = assay: Antibacterial activity against Escherichia coli DK2058G
Staphylococcus aureus [8] = assay: Antibacterial activity against Staphylococcus aureus ATCC 33591
Streptococcus pneumoniae [9] = assay: Antibacterial activity against Streptococcus pneumoniae 655 mef A
Streptococcus pneumoniae [10] = assay: Antibacterial activity against Streptococcus pneumoniae 2196 erm B
Streptococcus pneumoniae [11] = assay: Antibacterial activity against Streptococcus pneumoniae 2634 mef A 2059G
Staphylococcus aureus [12] = assay: Antibacterial activity against Staphylococcus aureus ATCC 29213
Escherichia coli [13] = assay: Antibacterial activity against Escherichia coli DK
Escherichia coli [14] = assay: Antibacterial activity against Escherichia coli SQ171
Escherichia coli [15] = assay: Antibacterial activity against Escherichia coli SQ171 2058G

Row | SMILES | MIC (Staphylococcus aureus [1]) [µM] | MIC (Enterococcus faecium) [µM] | MIC (Pseudomonas aeruginosa) [µM] | MIC (Klebsiella pneumoniae) [µM] | MIC (Acinetobacter baumannii) [µM] | MIC (Escherichia coli [2]) [µM] | MIC (Enterobacter cloacae) [µM] | MIC (Staphylococcus aureus [3]) [µM] | MIC (Staphylococcus aureus [4]) [µM] | MIC (Staphylococcus aureus [5]) [µM] | MIC (Escherichia coli [6]) [µM] | MIC (Escherichia coli [7]) [µM] | MIC (Staphylococcus aureus [8]) [µM] | MIC (Streptococcus pneumoniae [9]) [µM] | MIC (Streptococcus pneumoniae [10]) [µM] | MIC (Streptococcus pneumoniae [11]) [µM] | MIC (Staphylococcus aureus [12]) [µM] | MIC (Escherichia coli [13]) [µM] | MIC (Escherichia coli [14]) [µM] | MIC (Escherichia coli [15]) [µM]
1 | CC[C@H]1OC(=O)[C@@](C)(F)C(=O)[C@H](C)[C@@H](O[C@@H]2O[C@H](C)C[C@H](N(C)CCc3cn(C[C@@H]4CN(c5ccc(N6CCOCC6)c(F)c5)C(=O)O4)nn3)[C@H]2O)[C@](C)(OC)C[C@@H](C)C(=O)[C@H](C)C2N(CCCCn3cc(-c4cccc(N)c4)nn3)C(=O)O[C@@]21C (single isomer, unassigned) | 200 (≈ 241 µg/mL) | > 200 | > 200 | > 200 | > 200 | > 200 | > 200 |  |  |  |  |  |  |  |  |  |  |  |  | 
2 | CC[C@H]1OC(=O)[C@@](C)(F)C(=O)[C@H](C)[C@@H](OC[C@@H](O)CN2CCCCC2)[C@](C)(OC)C[C@@H](C)C(=O)[C@H](C)C2N(CCCCn3cc(-c4cccc(N)c4)nn3)C(=O)O[C@@]21C (single isomer, unassigned) |  |  |  |  |  |  |  | > 150 | > 150 | > 150 | 9.6 (≈ 7.96 µg/mL) | 4.8 (≈ 3.98 µg/mL) | > 150 | > 4.8 | > 4.8 | > 4.8 |  |  |  | 
3 | CC(=O)NC[C@H]1CN(c2ccc(N3CCOCC3)c(F)c2)C(=O)O1 [LINEZOLID] | 6 (≈ 2.02 µg/mL) | 6 (≈ 2.02 µg/mL) | > 200 | > 200 | > 200 | > 200 | > 200 |  |  |  |  |  |  |  |  |  |  |  |  | 
4 | [N-]=[N+]=NC[C@H]1CN(c2ccc(N3CCOCC3)c(F)c2)C(=O)O1 | > 200 | > 200 | > 200 | > 200 | > 200 | > 200 | > 200 |  |  |  |  |  |  |  |  |  |  |  |  | 
5 | CC[C@H]1OC(=O)[C@@](C)(F)C(=O)[C@H](C)[C@@H](O[C@@H]2O[C@H](C)C[C@H](N(C)C)[C@H]2O)[C@](C)(OC)C[C@@H](C)C(=O)[C@H](C)[C@H]2N(CCCCn3cc(-c4cccc(N)c4)nn3)C(=O)O[C@]12C [SOLITHROMYCIN] | > 200 | 0.2 (≈ 0.169 µg/mL) | 30 (≈ 25.4 µg/mL) | 100 (≈ 84.5 µg/mL) | 50 (≈ 42.3 µg/mL) | 100 (≈ 84.5 µg/mL) | 200 (≈ 169 µg/mL) | 9.5 (≈ 8.03 µg/mL) | 4.7 (≈ 3.97 µg/mL) | 4.7 (≈ 3.97 µg/mL) | 2.4 (≈ 2.03 µg/mL) | 4.7 (≈ 3.97 µg/mL) | 38 (≈ 32.1 µg/mL) | 0.29 (≈ 0.245 µg/mL) | 0.59 (≈ 0.499 µg/mL) | 0.15 (≈ 0.127 µg/mL) | 0.071 (≈ 0.06 µg/mL) | 2.4 (≈ 2.03 µg/mL) | > 38 | > 38
6 | CC[C@H]1OC(=O)[C@@](C)(F)C(=O)[C@H](C)[C@@H](O[C@@H]2O[C@H](C)C[C@H](N(C)CCn3cc(-c4cccc(N)c4)nn3)[C@H]2O)[C@](C)(OC)C[C@@H](C)C(=O)[C@H](C)C2N(CCCCn3cc(-c4cccc(N)c4)nn3)C(=O)O[C@@]21C (single isomer, unassigned) |  |  |  |  |  |  |  | > 130 | > 130 | > 130 | > 31 | > 31 |  |  |  |  | 0.49 (≈ 0.498 µg/mL) | > 31 | > 31 | > 31
7 | CC[C@H]1OC(=O)[C@@](C)(F)C(=O)[C@H](C)[C@@H](O[C@@H]2O[C@H](C)C[C@H](N(C)C)[C@H]2O)[C@](C)(OC)C[C@@H](C)C(=O)[C@H](C)C2N(C/C=C/Cn3cc(-c4cccs4)nn3)C(=O)O[C@@]21C (single isomer, unassigned) |  |  |  |  |  |  |  | 19 (≈ 15.8 µg/mL) | 9.6 (≈ 8.01 µg/mL) | 9.6 (≈ 8.01 µg/mL) | 2.4 (≈ 2 µg/mL) | 2.4 (≈ 2 µg/mL) |  |  |  |  | < 0.075 | 2.4 (≈ 2 µg/mL) | > 38 | > 38
8 | CC[C@H]1OC(=O)[C@@](C)(F)C(=O)[C@H](C)[C@@H](O[C@@H]2O[C@H](C)C[C@H](N(C)CCn3cc(-c4cccnc4)nn3)[C@H]2O)[C@](C)(OC)C[C@@H](C)C(=O)[C@H](C)C2N(CCCCn3cc(-c4cccc(N)c4)nn3)C(=O)O[C@@]21C (single isomer, unassigned) |  |  |  |  |  |  |  | > 130 | > 130 | > 130 | > 32 | > 32 |  |  |  |  | 0.25 (≈ 0.251 µg/mL) | > 32 | > 32 | > 32
9 | CC[C@H]1OC(=O)[C@@](C)(F)C(=O)[C@H](C)[C@@H](O[C@@H]2O[C@H](C)C[C@H](N(C)CCCCn3cc(-c4cccnc4)nn3)[C@H]2O)[C@](C)(OC)C[C@@H](C)C(=O)[C@H](C)C2N(CCCCn3cc(-c4cccc(N)c4)nn3)C(=O)O[C@@]21C (single isomer, unassigned) |  |  |  |  |  |  |  | > 120 | > 120 | > 120 | 7.8 (≈ 8.04 µg/mL) | 7.8 (≈ 8.04 µg/mL) |  |  |  |  | 1.9 (≈ 1.96 µg/mL) | 7.8 (≈ 8.04 µg/mL) | > 31 | > 31
10 | CC[C@H]1OC(=O)[C@@](C)(F)C(=O)[C@H](C)[C@@H](O[C@@H]2O[C@H](C)C[C@H](N(C)CCc3cn(C[C@H]4CN(c5ccc(N6CCOCC6)c(F)c5)C(=O)O4)nn3)[C@H]2O)[C@](C)(OC)C[C@@H](C)C(=O)[C@H](C)C2N(CCCCn3cc(-c4cccc(N)c4)nn3)C(=O)O[C@@]21C (single isomer, unassigned) | 0.8 (≈ 0.964 µg/mL) | 0.2 (≈ 0.241 µg/mL) | > 200 | > 200 | > 200 | > 200 | > 200 |  |  |  |  |  |  |  |  |  |  |  |  | 
11 | CC[C@H]1OC(=O)[C@@](C)(F)C(=O)[C@H](C)[C@@H](O[C@@H]2O[C@H](C)C[C@H](N(C)C)[C@H]2O)[C@](C)(OC)C[C@@H](C)C(=O)[C@H](C)C2N(C/C=C/Cn3cc(-c4cccc(N)c4)nn3)C(=O)O[C@@]21C (single isomer, unassigned) |  |  |  |  |  |  |  | 2.4 (≈ 2.02 µg/mL) | 0.15 (≈ 0.126 µg/mL) | < 0.074 | 2 (≈ 1.69 µg/mL) | 2.4 (≈ 2.02 µg/mL) |  |  |  |  | < 0.074 | 2.4 (≈ 2.02 µg/mL) | > 38 | > 38
12 | CC[C@H]1OC(=O)[C@@](C)(F)C(=O)[C@H](C)[C@@H](OC[C@@H](O)CN2CCOCC2)[C@](C)(OC)C[C@@H](C)C(=O)[C@H](C)C2N(CCCCn3cc(-c4cccc(N)c4)nn3)C(=O)O[C@@]21C (single isomer, unassigned) |  |  |  |  |  |  |  | > 150 | > 150 | > 150 | 4.8 (≈ 3.99 µg/mL) | 4.8 (≈ 3.99 µg/mL) | > 150 | > 4.8 | > 4.8 | > 4.8 |  |  |  | 
13 | [N-]=[N+]=NC[C@@H]1CN(c2ccc(N3CCOCC3)c(F)c2)C(=O)O1 | > 200 | > 200 | > 200 | > 200 | > 200 | > 200 | > 200 |  |  |  |  |  |  |  |  |  |  |  |  | 
14 | CC[C@H]1OC(=O)[C@@](C)(F)C(=O)[C@H](C)[C@@H](OC[C@@H](O)CN(C)C)[C@](C)(OC)C[C@@H](C)C(=O)[C@H](C)C2N(CCCCn3cc(-c4cccc(N)c4)nn3)C(=O)O[C@@]21C (single isomer, unassigned) |  |  |  |  |  |  |  | > 160 | > 160 | > 160 | > 41 | > 41 | > 160 | 2.5 (≈ 1.97 µg/mL) | > 5.1 | > 5.1 |  |  |  | 
